# Experimental data from PubChem BioAssay (NCI).
#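 Dose response: 5 concentrations. Exposure: 48 h. Format: 96-well plates. Endpoint: linear interpolation; highest concentration if not reached. TGI: total growth inhibition.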
# How the values were obtained:
# Test in all cases: NCI tumour cell line growth inhibition, 48 h
# 786-0 renal = system: 786-0 renal
# A549 NSCLC = system: A549 NSCLC
# CAKI-1 renal = system: CAKI-1 renal
# CCRF-CEM leukemia = system: CCRF-CEM leukemia
# COLO 205 colon = system: COLO 205 colon
# DU-145 prostate = system: DU-145 prostate
# EKVX NSCLC = system: EKVX NSCLC
# HCT-116 colon = system: HCT-116 colon
# HL-60(TB) leukemia = system: HL-60(TB) leukemia
# HOP-62 NSCLC = system: HOP-62 NSCLC
# HOP-92 NSCLC = system: HOP-92 NSCLC
# HT29 colon = system: HT29 colon
# IGROV1 ovarian = system: IGROV1 ovarian
# K-562 leukemia = system: K-562 leukemia
# KM12 colon = system: KM12 colon
# LOX IMVI melanoma = system: LOX IMVI melanoma
# M14 melanoma = system: M14 melanoma
# MDA-MB-435 = system: MDA-MB-435
# MDA-N = system: MDA-N
# MOLT-4 leukemia = system: MOLT-4 leukemia
# NCI-H226 lung = system: NCI-H226 lung
# OVCAR-3 ovarian = system: OVCAR-3 ovarian
# OVCAR-4 ovarian = system: OVCAR-4 ovarian
# OVCAR-5 ovarian = system: OVCAR-5 ovarian
# OVCAR-8 ovarian = system: OVCAR-8 ovarian
# RPMI-8226 leukemia = system: RPMI-8226 leukemia
# RXF 393 renal = system: RXF 393 renal
# SF-295 CNS = system: SF-295 CNS
# SF-539 CNS = system: SF-539 CNS
# SK-MEL-28 melanoma = system: SK-MEL-28 melanoma
# SK-MEL-5 melanoma = system: SK-MEL-5 melanoma
# SK-OV-3 ovarian = system: SK-OV-3 ovarian
# SN12C renal = system: SN12C renal
# SNB-19 CNS = system: SNB-19 CNS
# SNB-75 CNS = system: SNB-75 CNS
# SR leukemia = system: SR leukemia
# SW-620 colon = system: SW-620 colon
# T-47D breast = system: T-47D breast
# UO-31 renal = system: UO-31 renal
# A498 renal = system: A498 renal
# ACHN renal = system: ACHN renal
# BT-549 breast = system: BT-549 breast
# HCC-2998 colon = system: HCC-2998 colon
# HCT-15 colon = system: HCT-15 colon
# HS 578T breast = system: HS 578T breast
# MALME-3M melanoma = system: MALME-3M melanoma
# MCF7 breast = system: MCF7 breast
# MDA-MB-231 breast = system: MDA-MB-231 breast
# NCI-H23 lung = system: NCI-H23 lung
# NCI-H460 lung = system: NCI-H460 lung
# NCI-H522 lung = system: NCI-H522 lung
# NCI/ADR-RES ovarian = system: NCI/ADR-RES ovarian
# PC-3 prostate = system: PC-3 prostate
# SF-268 CNS = system: SF-268 CNS
# SK-MEL-2 melanoma = system: SK-MEL-2 melanoma
# TK-10 renal = system: TK-10 renal
# U251 CNS = system: U251 CNS
# UACC-257 melanoma = system: UACC-257 melanoma
# UACC-62 melanoma = system: UACC-62 melanoma
structure (smiles),measurement,setting,value
O=C(O)CCC(=O)c1ccc(Cl)cc1,TGI,786-0 renal,> 100 µM
same,TGI,A549 NSCLC,> 100 µM
same,TGI,CAKI-1 renal,> 100 µM
same,TGI,CCRF-CEM leukemia,> 100 µM
same,TGI,COLO 205 colon,> 100 µM
same,TGI,DU-145 prostate,> 100 µM
same,TGI,EKVX NSCLC,> 100 µM
same,TGI,HCT-116 colon,> 100 µM
same,TGI,HL-60(TB) leukemia,> 100 µM
same,TGI,HOP-62 NSCLC,> 100 µM
same,TGI,HOP-92 NSCLC,> 100 µM
same,TGI,HT29 colon,> 100 µM
same,TGI,IGROV1 ovarian,> 100 µM
same,TGI,K-562 leukemia,> 100 µM
same,TGI,KM12 colon,> 100 µM
same,TGI,LOX IMVI melanoma,> 100 µM
same,TGI,M14 melanoma,> 100 µM
same,TGI,MDA-MB-435,> 100 µM
same,TGI,MDA-N,> 100 µM
same,TGI,MOLT-4 leukemia,> 100 µM
same,TGI,NCI-H226 lung,> 100 µM
same,TGI,OVCAR-3 ovarian,> 100 µM
same,TGI,OVCAR-4 ovarian,> 100 µM
same,TGI,OVCAR-5 ovarian,> 100 µM
same,TGI,OVCAR-8 ovarian,> 100 µM
same,TGI,RPMI-8226 leukemia,> 100 µM
same,TGI,RXF 393 renal,> 100 µM
same,TGI,SF-295 CNS,> 100 µM
same,TGI,SF-539 CNS,> 100 µM
same,TGI,SK-MEL-28 melanoma,> 100 µM
same,TGI,SK-MEL-5 melanoma,> 100 µM
same,TGI,SK-OV-3 ovarian,> 100 µM
same,TGI,SN12C renal,> 100 µM
same,TGI,SNB-19 CNS,> 100 µM
same,TGI,SNB-75 CNS,> 100 µM
same,TGI,SR leukemia,> 100 µM
same,TGI,SW-620 colon,> 100 µM
same,TGI,T-47D breast,> 100 µM
same,TGI,UO-31 renal,> 100 µM
Nc1nn2c(nc(N)c3c(N)[nH]nc32)c1N=Nc1ccc(Br)cc1,TGI,786-0 renal,> 95.3 µM
same,TGI,A498 renal,> 100 µM
same,TGI,A549 NSCLC,> 100 µM
same,TGI,ACHN renal,> 100 µM
same,TGI,BT-549 breast,15.5 µM
same,TGI,CAKI-1 renal,> 100 µM
same,TGI,CCRF-CEM leukemia,> 100 µM
same,TGI,COLO 205 colon,> 100 µM
same,TGI,DU-145 prostate,> 100 µM
same,TGI,EKVX NSCLC,> 100 µM
same,TGI,HCC-2998 colon,> 100 µM
same,TGI,HCT-116 colon,> 100 µM
same,TGI,HCT-15 colon,> 100 µM
same,TGI,HL-60(TB) leukemia,77.9 µM
same,TGI,HOP-62 NSCLC,> 93 µM
same,TGI,HOP-92 NSCLC,28.1 µM
same,TGI,HS 578T breast,> 100 µM
same,TGI,HT29 colon,> 100 µM
same,TGI,IGROV1 ovarian,> 100 µM
same,TGI,K-562 leukemia,> 100 µM
same,TGI,KM12 colon,> 75.8 µM
same,TGI,LOX IMVI melanoma,22.6 µM
same,TGI,M14 melanoma,> 53.6 µM
same,TGI,MALME-3M melanoma,18.4 µM
same,TGI,MCF7 breast,> 100 µM
same,TGI,MDA-MB-231 breast,1.87 µM
same,TGI,MDA-MB-435,> 27.9 µM
same,TGI,MDA-N,9.88 µM
same,TGI,MOLT-4 leukemia,> 25.9 µM
same,TGI,NCI-H226 lung,> 100 µM
same,TGI,NCI-H23 lung,> 7.37 µM
same,TGI,NCI-H460 lung,> 100 µM
same,TGI,NCI-H522 lung,76.9 µM
same,TGI,NCI/ADR-RES ovarian,> 100 µM
same,TGI,OVCAR-3 ovarian,> 78 µM
same,TGI,OVCAR-4 ovarian,> 92.6 µM
same,TGI,OVCAR-5 ovarian,> 96.2 µM
same,TGI,OVCAR-8 ovarian,> 97.1 µM
same,TGI,PC-3 prostate,> 100 µM
same,TGI,RPMI-8226 leukemia,> 100 µM
same,TGI,RXF 393 renal,> 100 µM
same,TGI,SF-268 CNS,36.1 µM
same,TGI,SF-295 CNS,> 100 µM
same,TGI,SF-539 CNS,49.6 µM
same,TGI,SK-MEL-2 melanoma,36.5 µM
same,TGI,SK-MEL-28 melanoma,> 94.2 µM
same,TGI,SK-MEL-5 melanoma,> 100 µM
same,TGI,SK-OV-3 ovarian,> 100 µM
same,TGI,SN12C renal,56.7 µM
same,TGI,SNB-19 CNS,> 92.8 µM
same,TGI,SNB-75 CNS,59.9 µM
same,TGI,SR leukemia,> 100 µM
same,TGI,SW-620 colon,> 100 µM
same,TGI,TK-10 renal,> 100 µM
same,TGI,U251 CNS,30.7 µM
same,TGI,UACC-257 melanoma,> 100 µM
same,TGI,UACC-62 melanoma,> 100 µM
same,TGI,UO-31 renal,> 100 µM
